# Measured values as given in patent US8034822B2, “Glucokinase activators” (Takeda San Diego, Inc., priority 2006, dated 2011).
# Target: T1, glucokinase (GK) (Homo sapiens, UniProt P35557)
# T1 construct: I.D. No. 1 corresponds to residues 12-465 of glucokinase; made in house; host or cells: E. coli DH10b-T1r, pFLAG-CTC plasmid
# T1 sequence (P35557 with tags, fused parts or gaps isoform P35557-2): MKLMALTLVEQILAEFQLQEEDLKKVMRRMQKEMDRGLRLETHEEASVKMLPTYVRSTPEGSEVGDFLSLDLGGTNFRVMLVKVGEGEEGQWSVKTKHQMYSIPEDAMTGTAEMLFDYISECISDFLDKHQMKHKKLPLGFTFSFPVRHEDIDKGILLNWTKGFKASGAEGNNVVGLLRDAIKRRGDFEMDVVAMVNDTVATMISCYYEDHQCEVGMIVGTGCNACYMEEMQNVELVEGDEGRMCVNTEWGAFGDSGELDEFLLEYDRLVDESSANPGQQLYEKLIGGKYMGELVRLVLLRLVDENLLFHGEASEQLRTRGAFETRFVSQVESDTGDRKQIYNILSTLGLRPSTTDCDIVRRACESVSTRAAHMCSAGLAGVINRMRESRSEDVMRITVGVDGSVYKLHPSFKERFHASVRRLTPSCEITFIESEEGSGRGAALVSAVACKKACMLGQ
# Assay: enzymatic glucokinase activity assay (ATP consumption, KinaseGlo luminescence)
# Format: biochemical
# Conditions: Against GK; Kact = concentration giving 50% of maximal increase in GK activity; 5 μM ATP, 5 mM Glucose, 60 min room temperature; values given as bins; read-out: pKact
# Description: The activity of compounds as glucokinase activators may be assayed in vitro, in vivo or in a cell line. Provided below is an enzymatic glucokinase activity assay.
# Purified glucokinase may be obtained as follows. DNA encoding residues 12-465 of the full-length sequence of the human enzyme may be amplified by PCR and cloned into the HindIII and EcoRI sites of pFLAG-CTC (Sigma). SEQ. I.D. No. 1 corresponds to residues 12-465 of glucokinase.
# The expression of recombinant glucokinase protein may be carried out by transformation and growth of DH10b-T1r E. coli cells incorporating the (pFLAG-CTC) plasmid in LB media. Protein expression can be induced in this system by the addition of IPTG to the culture medium.
# Recombinant protein may be isolated from cellular extracts by passage over Sepharose Q Fast Flow resin (Pharmacia). This partially purified GK extract may then be further purified by a second passage over Poros HQ10 (Applied Biosystems). The purity of GK may be determined on denaturing SDS-PAGE gel. Purified GK may then be concentrated to a final concentration of 20.0 mg/ml. After flash freezing in liquid nitrogen, the proteins can be stored at −78° C. in a buffer containing 25 mM TRIS-HCl pH 7.6, 50 mM NaCl, and 0.5 mM TCEP.
# The activation properties of compounds for GK may be determined using a black 384-well-plate format under the following reaction conditions: 25 mM Hepes pH 7.2, 25 mM NaCl, 10 mM MgCl2, 0.01% Brij35, 1 mM DTT, 5 μM ATP, 5 mM Glucose 2% DMSO. The amount of ATP consumed may be determined quantitatively by addition of equal volume of luciferase reagent (luciferase+beetle luciferin—KinaseGlo Luminescent Kinase Assay kit from Promega). The luminescence intensity may be measured by using the Analyst HT from LJL Biosystems.
# The assay reaction may be initiated as follows: 4 μl of substrate mixture (12.5 μM ATP and 12.5 mM Glucose) was added to each well of the plate, followed by the addition of 2 μl of activator (2 fold serial dilutions for 11 data points for each activator) containing 10% DMSO. 4 μL of 1.25 nM GK solution may be added to initiate the reaction. The reaction mixture may then be incubated at room temperature for 60 min, and quenched and developed by addition of 10 μL of luciferase reagent. Luminescence intensities of the resulting reaction mixtures may be measured after a 10 min incubation at room temperature. The luminescence intensity may be measured by using the Analyst HT from LJL Biosystems.
# pKact and % ACTmax values may be calculated by non-linear curve fitting of the compound concentrations and luminescence intensities to a standard inhibition/activation equation.
row,Structure (SMILES),EC50
1,"CC(C)S(=O)(=O)c1csc2c(=O)n(C(CC3CCCCC3)C(=O)Nc3ccc(F)cn3)cnc12 (stereo not shown) [Compound 105, 3-Cyclohexyl-N-(5-fluoropyridin-2-yl)-2-(7-(isopropylsulfonyl)-4-oxothieno[3,2-d]pyrimidin-3(4H)-yl)propanamide]",1000 to 1580 nM
2,"CS(=O)(=O)c1csc2c(=O)n(C(CC3CCCCC3)C(=O)Nc3ccc(C(N)=O)cn3)cnc12 (stereo not shown) [Compound 182, 6-(3-cyclohexyl-2-(7-(methylsulfonyl)-4-oxothieno[3,2-d]pyrimidin-3(4H)-yl)propanamido)nicotinamide]",1000 to 1580 nM
3,"O=C(NC1CC1)c1ccc2c(=O)n(C(CC3CCOCC3)C(=O)Nc3ncc(Cl)s3)c(=O)[nH]c2c1 (stereo not shown) [Compound 181, 3-(1-(5-chlorothiazol-2-ylamino)-1-oxo-3-(tetrahydro-2H-pyran-4-yl)propan-2-yl)-N-cyclopropyl-2,4-dioxo-1,2,3,4-tetrahydroquinazoline-7-carboxamide]",≥ 2000 nM
4,"NC(=O)c1ccc(NC(=O)C(CC2CCCCC2)n2cnc3cc(C(=O)NC4CC4)ccc3c2=O)nc1 (stereo not shown) [Compound 169, 3-(1-(5-carbamoylpyridin-2-ylamino)-3-cyclohexyl-1-oxopropan-2-yl)-N-cyclopropyl-4-oxo-3,4-dihydroquinazoline-7-carboxamide]",≤ 398 nM
5,"CCS(=O)(=O)c1ccc2c(=O)n(C(CC3CCCCC3)C(=O)Nc3ccc(F)cn3)cnc2c1 (stereo not shown) [Compound 71, 3-Cyclohexyl-2-(7-ethanesulfonyl-4-oxo-4H-quinazolin-3-yl)-N-(5-fluoro-pyridin-2-yl)-propionamide]",1000 to 1580 nM
6,"COC(=O)c1ccc(NC(=O)C(CC2CCCCC2)n2cnc3cc(F)ccc3c2=O)nc1 (stereo not shown) [Compound 205, methyl 6-(3-cyclohexyl-2-(7-fluoro-4-oxoquinazolin-3(4H)-yl)propanamido)nicotinate]",1000 to 1580 nM
7,"O=C(Nc1ccc(F)cn1)C(CC1CCCCC1)n1cnc2cc(S(=O)(=O)C3CC3)ccc2c1=O (stereo not shown) [Compound 74, 3-Cyclohexyl-2-(7-cyclopropanesulfonyl-4-oxo-4H-quinazolin-3-yl)-N-(5-fluoro-pyridin-2-yl)-propionamide]",1000 to 1580 nM
8,"O=C(Nc1ccc(Cl)cn1)C(CC1CCCCC1)n1cnc2cc(S(=O)(=O)C3CC3)ccc2c1=O (stereo not shown) [Compound 75, N-(5-Chloro-pyridin-2-yl)-3-cyclohexyl-2-(7-cyclopropanesulfonyl-4-oxo-4H-quinazolin-3-yl)-propionamide]",501 to 794 nM
9,"O=C(Nc1ccc(Cl)cn1)C(CC1CCCCC1)n1cnc2ccc(F)cc2c1=O (stereo not shown) [Compound 160, N-(5-chloropyridin-2-yl)-3-cyclohexyl-2-(6-fluoro-4-oxoquinazolin-3(4H)-yl)propanamide]",1000 to 1580 nM
10,"CS(=O)(=O)c1ccc2ncn(C(CC3CCCCC3)C(=O)Nc3ccc(Cl)cn3)c(=O)c2c1 (stereo not shown) [Compound 79, N-(5-Chloro-pyridin-2-yl)-3-cyclohexyl-2-(6-methanesulfonyl-4-oxo-4H-quinazolin-3-yl)-propionamide]",501 to 794 nM
11,"COc1ccc2ncn(C(CC3CCCCC3)C(=O)Nc3nccs3)c(=O)c2c1 (stereo not shown) [Compound 131, 3-cyclohexyl-2-(6-methoxy-4-oxoquinazolin-3(4H)-yl)-N-(thiazol-2-yl)propanamide]",≥ 2000 nM
12,"CS(=O)(=O)c1ccc2ncn([C@@H](CC3CCCCC3)C(=O)Nc3ccc(C(N)=O)cn3)c(=O)c2c1 [Compound 93, 6-[3-Cyclohexyl-2-(6-methanesulfonyl-4-oxo-4H-quinazolin-3-yl)-propionylamino]-nicotinamide]",501 to 794 nM
13,"COC(=O)c1ccc(NC(=O)C(CC2CCCCC2)n2cnc3c(S(=O)(=O)C(C)C)csc3c2=O)nc1 (stereo not shown) [Compound 104, Methyl 6-(3-cyclohexyl-2-(7-(isopropylsulfonyl)-4-oxothieno[3,2-d]pyrimidin-3(4H)-yl)propanamido)nicotinate]",501 to 794 nM
14,"NC(=O)c1ccc(NC(=O)C(CC2CCCCC2)n2cnc3cc(S(=O)(=O)C4CCCC4)ccc3c2=O)nc1 (stereo not shown) [Compound 80, 6-[3-Cyclohexyl-2-(7-cyclopentanesulfonyl-4-oxo-4H-quinazolin-3-yl)-propionylamino]-nicotinamide]",≤ 398 nM
15,"CS(=O)(=O)c1ccc2c(=O)n(C(CC3CCCCC3)C(=O)Nc3ccc(C(N)=O)cn3)cnc2c1 (stereo not shown) [Compound 158, 6-(3-cyclohexyl-2-(7-(methylsulfonyl)-4-oxoquinazolin-3(4H)-yl)propanamido)nicotinamide]",501 to 794 nM
16,"O=C(Nc1ncc(Cl)s1)C(CC1CCCCC1)n1cnc2c(C(F)(F)F)cccc2c1=O (stereo not shown) [Compound 142, N-(5-chlorothiazol-2-yl)-3-cyclohexyl-2-(4-oxo-8-(trifluoromethyl)-quinazolin-3(4H)-yl)propanamide]",≥ 2000 nM
17,"Cc1ccc(NC(=O)C(CC2CCCCC2)n2cnc3ccc(F)cc3c2=O)nc1 (stereo not shown) [Compound 192, 3-cyclohexyl-2-(6-fluoro-4-oxoquinazolin-3(4H)-yl)-N-(5-methylpyridin-2-yl)propanamide]",≥ 2000 nM
18,"Cc1cnc(NC(=O)C(CC2CCCCC2)n2cnc3cc(S(C)(=O)=O)ccc3c2=O)s1 (stereo not shown) [Compound 61, 3-Cyclohexyl-2-(7-methanesulfonyl-4-oxo-4H-quinazolin-3-yl)-N-(5-methyl-thiazol-2-yl)-propionamide]",≥ 2000 nM
19,"CS(=O)(=O)c1ccc2c(=O)n(C(CC3CCCCC3)C(=O)Nc3ccccn3)cnc2c1 (stereo not shown) [Compound 60, 3-Cyclohexyl-2-(7-methanesulfonyl-4-oxo-4H-quinazolin-3-yl)-N-pyridin-2-yl-propionamide]",≥ 2000 nM
20,"CS(=O)(=O)c1ccc2c(=O)n(C(CC3CCCCC3)C(=O)Nc3ccc(C(=O)O)cn3)cnc2c1 (stereo not shown) [Compound 65, 6-[3-Cyclohexyl-2-(7-methanesulfonyl-4-oxo-4H-quinazolin-3-yl)-propionylamino]-nicotinic acid]",≥ 2000 nM
21,"COC(=O)c1ccc(NC(=O)[C@H](CC2CCCCC2)n2cnc3c(C(F)(F)F)cccc3c2=O)nc1 [Compound 210, (S)-methyl 6-(3-cyclohexyl-2-(4-oxo-8-(trifluoromethyl)quinazolin-3(4H)-yl)propanamido)nicotinate]",1000 to 1580 nM
22,"CS(=O)(=O)c1ccc2c(=O)n(C(CC3CCCCC3)C(=O)Nc3ncc(Cl)s3)cnc2c1 (stereo not shown) [Compound 56, N-(5-Chloro-thiazol-2-yl)-3-cyclohexyl-2-(7-methanesulfonyl-4-oxo-4H-quinazolin-3-yl)-propionamide]",1000 to 1580 nM
23,"COC(=O)c1ccc(NC(=O)[C@@H](CC2CCCCC2)n2cnc3c(C(F)(F)F)cccc3c2=O)nc1 [Compound 211, (R)-methyl 6-(3-cyclohexyl-2-(4-oxo-8-(trifluoromethyl)quinazolin-3(4H)-yl)propanamido)nicotinate]",≤ 398 nM
24,"CS(=O)(=O)c1ccc2c(=O)n(C(Cc3c(F)cccc3F)C(=O)Nc3ccc(Cl)cn3)cnc2c1 (stereo not shown) [Compound 77, N-(5-Chloro-pyridin-2-yl)-3-(2,6-difluoro-phenyl)-2-(7-methanesulfonyl-4-oxo-4H-quinazolin-3-yl)-propionamide]",1000 to 1580 nM
25,"CN1CCC(CNC(=O)c2ccc3c(=O)n(C(CC4CCCCC4)C(=O)Nc4ncc(Cl)s4)c(=O)[nH]c3c2)CC1 (stereo not shown) [Compound 179, 3-(1-(5-chlorothiazol-2-ylamino)-3-cyclohexyl-1-oxopropan-2-yl)-N-((1-methylpiperidin-4-yl)methyl)-2,4-dioxo-1,2,3,4-tetrahydroquinazoline-7-carboxamide]",501 to 794 nM
